Measured values as given in patent publication US6680199B1, “In vitro activation of mammalian oocytes” (Infigen, Inc., priority 1993, dated 2004).
Marks after values point to notes of the source that are not given here.

Key:
[1] = test system: bovine oocytes matured for 24 hours; experiment: Parthenogenic development of activated oocytes (initial cleavage, blastocyst, blastocyst cell number); format: cell-based; settings: for Development to Blastocyst (± se): after ionomycin 5 μM, day 7-8 of culture; for cell number in resulting parthenote blastocysts, Good / cell number in resulting parthenote blastocysts, Poor: after ionomycin
Method: (§1) The cumulus was removed from matured oocytes by vortexing vigorously in 200 μl or TL-HEPES for 3 min. The denuded oocytes were diluted in 3 changes of TL-HEPES to separate the oocytes from the cumulus cells. Where indicated, the oocytes were exposed to 5 μM ionomycin (5 mM stock in DMSO; Calbiochem, La Jolla, Calif.) in TL-HEPES (1 mg/ml fatty acid free BSA) for 4 min. The oocytes were then diluted into TL-HEPES (30 mg/ml fatty acid BSA) for 5 min followed by dilution into TL-HEPES (1 mg/ml Fraction V BSA). The oocytes were then moved to 50 μl drops of embryonic cell development media (U.S. Pat. No. 5,096,822 to Rosenkrans et al., with or without DMAP (1.9 mM) for the indicated times (39° C., 5% CO2 in air). Embryonic cell development media contained 114.6 mM NaCl, 3.1 mM KCl, 5 mM hemi-calcium lactate, 0.4 mM Na pyruvate, 1 mM glutamine, 3 mg/ml fatty acid free BSA, MEM nonessential amino acids and BME amino acids.
In experiments that determined development potential of the parthenotes, activated oocytes were cultured for 7-8 days in embryonic cell development media. On the date after activation, initial cleavage was determined by visual observation. On day 4 of incubation 5% heat treated fetal calf serum was added to each drop. For some experiments, blastocysts were mounted and fixed in acetic acid:alcohol (1:3) and stained with 1% orcein dissolved in 40% acetic acid to determine cell numbers.
Experiments 2a and 2b determined the effect of time of incubation in DMAP on activation and development. In Experiment 2a, oocytes were incubated in DMAP for 15, 30, 60, 150 and 300 minutes. At the end of the incubation time indicated, oocytes were rinsed in TL-HEPES (1 mg/ml Fraction V BSA) and placed into embryonic cell development medium until 5 hours had elapsed. At 5 hours, a subsample of oocytes was removed and mounted to determine activation. The remaining oocytes were returned to the incubator for 7-8 days. Blastocytes on day 7-8 were rated as good or poor and cell number was determined.
Experiment 2b was similar in design except that oocytes were incubated for 2 hours, 3 hours, 4 hours, or 5 hours in DMAP.

[2] = test system: bovine oocytes matured for 24 hours; experiment: Parthenogenic activation of in vitro matured bovine oocytes (activation, pronuclear formation); format: cell-based; settings: for Activation of oocytes, result in words / Chromosome / pronuclear outcome, result in words: Experiment 1, 5 hours of culture, FIG. 1b-1d; for % Activation / % Pronuclear formation: oocytes matured 24 h, ionomycin 5 μM 4 min and/or DMAP for 5 hours, determined after 5 hours of culture
Method: Bovine oocytes were obtained at an abattoir and transported to the laboratory in saline (30-34° C., transport time 2-6 hr). Oocytes from small follicles (1-6 mm) were aspirated and matured according to the methods described in Sirard et al., 1988. Briefly, oocytes were diluted out of the follicular fluid with 3 dilutions of TL HEPES modified by removing glucose, adding 0.22 mM pyruvate and 1 mg/ml of BSA (Fraction V, Sigma Chemical CO, St. Louis, Mo.).
The oocytes were placed in 50 μl drops of TCM-199 (Earle's Salts; Gibco, Grand Island, N.Y.) supplemented with 10% heat treated fetal calf serum, 0.22 mM pyruvate, 5 μg/ml FSH-P (Scherring-Plough Animal Health Corp., Kenilworth, N.J.) and 1 μ/ml estradiol. Ten oocytes were incubated in a 50 μl drop under paraffin oil for 24 hours at 39° C. in 5% CO2 in air humidified atmosphere.
as §1
Activation was evaluated at times indicated in each experiment. The oocytes were mounted on slides, fixed with acetic acid:alcohol (1:3) and observed with Nomarski optics. Special care was taken in determining if metaphase plates were metaphase II or aberrant metaphase III (Kubiak, 1989). Oocytes that contained a metaphase I or II plate were considered not activated. Oocytes that contained anaphase, telophase or metaphase […] plates or pronuclei were considered to be activated.
Experiment 1 determined the effect of sequential exposure of oocytes to ionomycin and DMAP. One level of ionomycin (5 μM) and DMAP (1.9 mM) was used throughout all studies. The oocytes were cultured for 5 hours after ionomycin incubation with or without DMAP. Control oocytes were cultured in embryonic cell development medium alone. Activation was determined after 5 hours of culture. […]
Experiment 3 was designed to determine the kinetics of activation when oocytes were exposed to ionomycin alone or to ionomycin followed by a 3 hour incubation in DMAP. At the end of the 3 hour incubation, oocytes in DMAP were diluted in TL-HEPES (1 mg/ml Fraction V BSA) and moved to embryonic cell development medium until mounting. A sample of oocytes from both treatments were mounted at 1, 2, 3, 4 and 5 hours after exposure to ionomycin to determine the activation state.
Experiment 4 was designed to determine the time at which DMAP is necessary for parthenogenic activation relative to the exposure to ionomycin. The oocytes were exposed to ionomycin and placed in embryonic cell development medium. At 0, 1, 2, 2.5, 3 and 4 hours after ionomycin exposure, oocytes were placed in embryonic cell development medium+DMAP. At 5 hours post ionomycin exposure, the oocytes were mounted to determine their activation state.

[3] = test system: 42-hour oocyte derived nuclear transfer (NT) embryos; experiment: Development of 42-hour oocyte derived nuclear transfer embryos; format: cell-based, bovine; settings: 1.9 mM DMAP with room temperature activation (RTC) 2 hours; 140 NTs to culture; 6 to 7 days
Method: Bovine oocytes were obtained and placed in maturation media for approximately 20 hours. The cumulus cells were then stripped off the oocytes according to the previously described procedures.
The oocytes were then enucleated according to Prather et al. and placed in CR1aa maturation medium until 40 hours had elapsed. The oocyte were then placed in CR1aa maturation medium with 1.9 mM DMAP for 2 hours and incubated at room temperature activation (RTC) conditions (about 25° C.).
Following incubation, embryonic cells were transferred into the oocytes and the 2 cells were electrically fused together according to the procedures described in Prather et al., with the exception of the step of waiting until 42 hours to activate via RTC (25° C.) and adding DMAP prior to the time of electrofusion. The fused nuclear transfer embryos were then cultured in maturation medium CR1aa for 6 to 7 days to determine developmental rates to the blastocyst stage.

[4] = test system: 20-hours oocytes derived nuclear transfers; experiment: Development of 20-hour oocyte derived nuclear transfers (fused after activation); format: cell-based, bovine; settings: treatment at 20 hours maturation after enucleation, 4 hours DMAP with or without ionomycin 5 μM 4 min
Method: This experiment was conducted under similar conditions as Experiment 6 with the exception that the oocytes were either placed directly in DMAP (young oocytes) or given in ionomycin (5 μM) treatment for 4 minutes plus DMAP treatment immediately after enucleation, i.e., at 20 hours maturation. At the end of the DMAP treatment, approximately 24 hours, embryonic cells were transferred into the oocytes and electrofusion was induced. The concentration of activating chemicals used were the same as those described in Experiment 6. The embryos were placed in maturation medium CR1aa for 6 to 7 days to determine developmental rates to blastocyst stage.

[5] = Experiment 3, FIG. 2, time after exposure to ionomycin

## CN(C)c1ncnc2nc[nH]c12 [DMAP, 6-dimethylaminopurine]
[1]; Experiment 2b, DMAP incubation 0 h (ionomycin alone)
  Development to Blastocyst (± se): 0^a %
[1]; 6-DMAP 1.9 mM incubation 15 min
  Development to Blastocyst (± se): 0^a %
[1]; 6-DMAP 1.9 mM incubation 30 min
  Development to Blastocyst (± se): 0^a %
[1]; 6-DMAP incubation 0 min (ionomycin alone)
  Development to Blastocyst (± se): 0^a %
[1]; DMAP incubation 2 h
  cell number in resulting parthenote blastocysts, Good: 88.7
[1]; DMAP incubation 3 h
  cell number in resulting parthenote blastocysts, Good: 70.1
  cell number in resulting parthenote blastocysts, Poor: 33.1
[1]; DMAP incubation 4 h
  cell number in resulting parthenote blastocysts, Good: 73.6
  cell number in resulting parthenote blastocysts, Poor: 40.1
[1]; DMAP incubation 5 h
  cell number in resulting parthenote blastocysts, Good: 83.7
  cell number in resulting parthenote blastocysts, Poor: 44
[2]
  Activation of oocytes, result in words: did not activate the oocytes
  Chromosome / pronuclear outcome, result in words: caused the chromosomes to form a tight clump in the cytoplasm
  % Activation: 7.8 ± 5.5^a %
  % Pronuclear formation: 7.8 ± 5.5^a %
[2]; Experiment 4, FIG. 3, interval more than 1 hour, mounted 5 hours post ionomycin
  Effect of interval from ionomycin treatment to exposure to DMAP, result in words: increase in ability to resume meiosis
[3]
  Number Blastocyst: 40
  Number Blastocyst, percent: 29%
  Number Usable Blastocyst: 18
  Number Usable Blastocyst, percent: 13%
[4]; cultured 6 to 7 days
  % Usable: 0%
  Development Rate to Blastocyst: 0%
[4]; fused after activation
  Cleavage Rate: 4%

## C[C@H](CCC(=O)O)C[C@H](C)C[C@H](C)C(=O)/C=C(\O)[C@H](C)C[C@H](C)C/C=C/[C@@H](C)[C@@H](O)[C@@H](C)[C@@H](O)C[C@@H]1CC[C@@](C)([C@H]2CC[C@@](C)([C@@H](C)O)O2)O1 [Ionomycin, ionomycin]
[2]
  Activation of oocytes, result in words: activated the oocytes to a high level
  Chromosome / pronuclear outcome, result in words: instead of forming pronuclei the chromosomes reassembled into a metaphase plate
  % Activation: 57.8 ± 7.8^b %
  % Pronuclear formation: 8.9 ± 7.3^a %
[2]; [5]
  Time by which oocytes had resumed meiosis: ≤ 1 h
  Time by which oocytes were arrested in metaphase III: 4 to 5 h
